Test results published in patent publication US20240408093A1, “HETEROBIFUNCTIONAL COMPOUNDS AND THEIR USE IN TREATING DISEASE” (HALDA THERAPEUTICS OPCO, INC., priority 2022, published 2024).
Where two headings read alike, the source gives them in different places.

How the values were obtained:
[1] = test system: CCNK; experiment: Payload release assay (DC50 readout), CCNK degradation in the presence of recombinant target protein; assay type: cell-based
Experimental: Exemplary compounds were tested for ability to cause degradation of CCNK or GSPT1 in the presence of recombinant target protein.
HEK293 LgBiT/GSPT1 HiBiT CRISPR Knock-in cells (Promega) were cultured in DMEM (Gibco 11995), supplemented with 10% Heat-inactivated FBS (Gibco A38400-01) and 1% Penicillin/Streptomycin (Gibco 15140-122) and 200 Vg/ml Hygromycin B (Gibco 10-687-010) at 37° C. with 5% CO2 in a humidified tissue culture incubator. HEK293 LgBiT/CCNK HiBiT cells (in-house, described above) were cultured in DMEM (Gibco 11995), supplemented with 10% Heat-inactivated FBS (Gibco A38400-01) and 1% Penicillin/Streptomycin (Gibco 15140-122) 200 Vg/ml Hygromycin B (Gibco 10-687-010), and 1 Vg/ml Puromycin Dihydrochloride (Thermo A1113803) at 37° C. with 5% CO2 in a humidified tissue culture incubator. Cells were seeded (1000 cells/well for HEK293 LgBiT/GSPT1 HiBiT cells or 3000 cells/well for HEK293 LgBiT/CCNK HiBiT cells) 384-well, tissue culture-treated white plates (Perkin Elmer 6007680) in 10 μL media lacking selection for 18-24 hours. Plates were spun at 300 g for 30 seconds and stored in the incubator overnight. After 24 hours, a 5 μL aliquot of recombinant target protein (final concentration of either 5 μM KRAS amino acids 1-169, C51S, C80L, C118S, G12C or 3 μM EGFR amino acids 696-1022 or 3 μM EGFR amino acids 696-1022, T790M, L858R) was added to wells, followed immediately by a 5 μL aliquot of 4× compound-containing medium supplemented with Endurazine Substrate (Promega N2570) was added in each well, at a final top concentration of 10 μM test compound and 0.5× Endurazine, with 4-fold dilutions, using DMSO alone as a negative control. Plates were then spun at 300×g for 3 minutes again and cultured at 37° C. with 5% CO2. After 6 hours the plate was read on Envision MultiMode Plate Reader 2105 (Perkin Elmer) to measure luminescence signal. Data was normalized to DMSO treated cell wells. A four-parameter non-linear regression curve fit was applied to dose-response data in Prism to determine the half maximal growth inhibitory concentration (GI50) of each compound.

[2] = molecular target: T1, CCNK (Homo sapiens, UniProt O75909+Q16531+Q9NYV4); experiment: CCNK HiBiT degradation assay; assay type: cell-based; details: HEK293 LgBiT/CCNK HiBiT cells, 6 hours
T1 construct: expressed in transfected cells; host or cells: HEK293 LgBiT cells (Promega), lentiviral transduction, puromycin selection
Experimental: HEK293 LgBiT cells (Promega) were cultured in DMEM (Gibco 11995), supplemented with 10% Heat-inactivated FBS (Gibco A38400-01) and 1% Penicillin/Streptomycin (Gibco 15140-122) and 200 μg/ml Hygromycin B (Gibco 10-687-010) at 37° C. with 5% CO2 in a humidified tissue culture incubator. Cells were made stable for CCNK fused to a C-terminal HiBiT peptide by lentiviral transduction, followed by selection with 1 μg/ml Puromycin Dihydrochloride (Thermo A1113803). HEK293 LgBiT/CCNK HiBiT cells were seeded at 3000 cells/well in 384-well, tissue culture-treated white plates (Perkin Elmer 6007680) in 25 μL media lacking selection for 18-24 hours. Plates were spun at 300 g for 30 seconds and stored in the incubator overnight. After 24 hours, compounds were titrated in DMSO and added to media supplemented with Endurazine Substrate (Promega N2570). A 25 ul aliquot of 2× compound/endurazine in media were then added to the 384-well microplate with seeded cells. (Endurazine was used at a final concentration of 0.5×). The plate was spun at 300 g for 30 seconds and stored in the incubator. After 6 hours the plate was read on Envision MultiMode Plate Reader 2105 (Perkin Elmer) to measure luminescence signal. Data were plotted in Prism (Graphpad) and the concentration of compound at which 50% CCNK degradation occurs (DC50) was calculated.

[3] = 0 μM recombinant EGFR T790M L858R, II-series and V-4 (CCNK readout inferred), read-out: DC50 at 0 μM EGFR T790M L858R
[4] = 0 μM recombinant EGFR WT, II-series and V-4 (CCNK readout inferred), read-out: DC50 at 0 μM EGFR WT
[5] = 3 μM recombinant EGFR T790M L858R, II-series and V-4 (CCNK readout inferred), read-out: DC50 at 3 μM EGFR T790M L858R
[6] = 3 μM recombinant EGFR WT, II-series and V-4 (CCNK readout inferred), read-out: DC50 at 3 μM EGFR WT
[7] = 0 μM recombinant KRAS G12C, II-series compounds (CCNK readout inferred), read-out: DC50 at 0 μM KRAS G12C
[8] = 5 μM recombinant KRAS G12C, II-series compounds (CCNK readout inferred), read-out: DC50 at 5 μM KRAS G12C

T1 sequence (O75909 whole entry, species assumed): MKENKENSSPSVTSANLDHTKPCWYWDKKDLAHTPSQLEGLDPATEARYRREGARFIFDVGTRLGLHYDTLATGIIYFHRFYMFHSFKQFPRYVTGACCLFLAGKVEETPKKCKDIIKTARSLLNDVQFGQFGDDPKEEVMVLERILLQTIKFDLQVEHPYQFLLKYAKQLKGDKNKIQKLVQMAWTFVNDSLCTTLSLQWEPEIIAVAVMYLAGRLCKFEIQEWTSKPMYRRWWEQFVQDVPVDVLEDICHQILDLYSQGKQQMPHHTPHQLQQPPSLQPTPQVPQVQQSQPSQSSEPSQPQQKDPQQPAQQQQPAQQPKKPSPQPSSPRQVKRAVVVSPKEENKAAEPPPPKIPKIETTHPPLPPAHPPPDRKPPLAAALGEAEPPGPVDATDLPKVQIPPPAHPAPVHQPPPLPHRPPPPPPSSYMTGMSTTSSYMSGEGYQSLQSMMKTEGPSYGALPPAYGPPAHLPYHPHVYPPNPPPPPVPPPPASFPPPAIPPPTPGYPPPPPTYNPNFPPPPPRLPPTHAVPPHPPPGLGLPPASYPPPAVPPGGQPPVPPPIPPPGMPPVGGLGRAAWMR
T1 sequence (Q9NYV4 whole entry, species assumed): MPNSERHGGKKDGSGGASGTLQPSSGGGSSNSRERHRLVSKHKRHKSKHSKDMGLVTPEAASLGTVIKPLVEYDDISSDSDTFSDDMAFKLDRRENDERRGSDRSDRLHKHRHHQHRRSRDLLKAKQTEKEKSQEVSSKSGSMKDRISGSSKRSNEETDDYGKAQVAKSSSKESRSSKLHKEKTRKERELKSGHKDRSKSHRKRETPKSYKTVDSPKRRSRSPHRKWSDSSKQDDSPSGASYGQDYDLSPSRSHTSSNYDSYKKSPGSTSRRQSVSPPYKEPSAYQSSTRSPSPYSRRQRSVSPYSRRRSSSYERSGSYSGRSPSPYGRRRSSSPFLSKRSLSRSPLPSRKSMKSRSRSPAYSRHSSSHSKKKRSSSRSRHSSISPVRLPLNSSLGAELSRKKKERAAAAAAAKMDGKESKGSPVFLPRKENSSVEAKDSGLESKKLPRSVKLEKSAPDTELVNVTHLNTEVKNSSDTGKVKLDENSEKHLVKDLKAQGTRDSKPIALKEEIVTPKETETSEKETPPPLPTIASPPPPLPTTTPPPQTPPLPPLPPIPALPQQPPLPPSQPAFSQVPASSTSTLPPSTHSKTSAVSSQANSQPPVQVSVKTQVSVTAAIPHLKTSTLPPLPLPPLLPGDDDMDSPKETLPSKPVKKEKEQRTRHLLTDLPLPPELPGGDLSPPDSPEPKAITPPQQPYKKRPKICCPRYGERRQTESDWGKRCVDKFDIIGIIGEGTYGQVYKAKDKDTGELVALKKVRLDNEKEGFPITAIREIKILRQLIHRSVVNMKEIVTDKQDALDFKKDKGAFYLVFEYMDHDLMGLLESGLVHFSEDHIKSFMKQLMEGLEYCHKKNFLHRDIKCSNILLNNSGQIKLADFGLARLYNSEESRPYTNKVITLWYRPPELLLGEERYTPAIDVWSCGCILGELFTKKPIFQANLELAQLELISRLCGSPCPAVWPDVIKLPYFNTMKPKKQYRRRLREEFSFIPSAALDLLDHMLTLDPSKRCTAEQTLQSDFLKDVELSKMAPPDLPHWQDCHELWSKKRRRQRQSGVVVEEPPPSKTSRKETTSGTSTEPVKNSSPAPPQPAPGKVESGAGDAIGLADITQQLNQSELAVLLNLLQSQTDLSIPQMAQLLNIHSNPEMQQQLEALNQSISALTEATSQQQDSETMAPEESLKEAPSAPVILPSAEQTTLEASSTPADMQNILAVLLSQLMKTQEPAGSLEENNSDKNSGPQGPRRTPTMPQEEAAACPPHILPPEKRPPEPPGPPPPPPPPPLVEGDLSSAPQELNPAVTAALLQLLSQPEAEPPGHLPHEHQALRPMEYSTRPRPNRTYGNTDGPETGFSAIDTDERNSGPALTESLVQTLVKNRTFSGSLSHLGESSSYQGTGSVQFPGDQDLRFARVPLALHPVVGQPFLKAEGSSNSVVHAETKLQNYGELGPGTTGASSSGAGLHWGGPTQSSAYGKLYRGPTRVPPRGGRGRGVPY
T1 sequence (Q16531 whole entry, species assumed): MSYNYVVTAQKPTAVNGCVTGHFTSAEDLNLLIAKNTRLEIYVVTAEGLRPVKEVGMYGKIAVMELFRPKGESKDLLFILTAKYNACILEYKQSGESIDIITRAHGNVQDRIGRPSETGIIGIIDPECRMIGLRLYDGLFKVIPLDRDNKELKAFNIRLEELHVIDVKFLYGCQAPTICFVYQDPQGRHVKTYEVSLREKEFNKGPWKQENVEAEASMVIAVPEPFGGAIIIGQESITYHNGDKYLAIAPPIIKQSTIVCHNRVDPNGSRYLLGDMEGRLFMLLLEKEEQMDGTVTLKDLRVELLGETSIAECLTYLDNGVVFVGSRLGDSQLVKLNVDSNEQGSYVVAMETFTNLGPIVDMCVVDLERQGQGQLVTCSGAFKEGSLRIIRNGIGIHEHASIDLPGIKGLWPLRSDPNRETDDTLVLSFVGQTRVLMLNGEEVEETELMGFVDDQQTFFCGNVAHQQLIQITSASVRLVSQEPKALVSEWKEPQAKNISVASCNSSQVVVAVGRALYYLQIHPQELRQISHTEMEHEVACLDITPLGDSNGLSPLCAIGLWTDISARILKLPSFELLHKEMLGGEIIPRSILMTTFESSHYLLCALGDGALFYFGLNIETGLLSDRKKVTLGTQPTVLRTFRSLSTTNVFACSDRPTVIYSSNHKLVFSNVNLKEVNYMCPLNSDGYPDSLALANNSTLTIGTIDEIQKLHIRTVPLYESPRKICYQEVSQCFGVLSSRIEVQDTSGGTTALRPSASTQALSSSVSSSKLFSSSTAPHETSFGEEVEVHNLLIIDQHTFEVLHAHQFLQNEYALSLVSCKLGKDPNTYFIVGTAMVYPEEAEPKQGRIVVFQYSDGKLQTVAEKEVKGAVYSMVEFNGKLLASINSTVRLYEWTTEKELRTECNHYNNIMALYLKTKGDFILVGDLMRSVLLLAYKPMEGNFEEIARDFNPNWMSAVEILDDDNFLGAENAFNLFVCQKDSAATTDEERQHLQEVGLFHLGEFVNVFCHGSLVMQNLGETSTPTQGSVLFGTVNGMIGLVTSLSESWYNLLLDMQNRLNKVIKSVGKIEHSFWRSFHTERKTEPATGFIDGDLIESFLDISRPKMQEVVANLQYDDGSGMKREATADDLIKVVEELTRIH

| SMILES | DC50 [1, 3] [nM] | DC50 [1, 4] [nM] | DC50 [1, 5] [nM] | DC50 [1, 6] [nM] | DC50 [2] [nM] | DC50 [1, 7] [nM] | DC50 [1, 8] [nM] |
| --- | --- | --- | --- | --- | --- | --- | --- |
| C=C(COC(=O)n1c(CNc2nc(N3CCNCC3)nc3c(Br)cnn23)nc2cc(C)ccc21)C(=O)N1C[C@H](COc2nc(Nc3cnn(C)c3)nc3[nH]cc(Cl)c23)[C@@H](OC)C1 [Compound V-4] | < 250 | < 250 | < 250 | < 250 | < 250 |  |  |
| C=C(COc1cc(-c2ccccn2)ccc1CNc1nc(N[C@H](CC)CO)nc2c1ncn2C(C)C)C(=O)N[C@@H]1CN(c2nc(Nc3cn(C)nc3OC)c3ncn(C)c3n2)C[C@H]1F [II-183] | < 250 | < 250 |  |  |  |  |  |
| C=C(COC(=O)N1CCN(c2nc(NCc3nc4cc(C)ccc4[nH]3)n3ncc(Br)c3n2)CC1)C(=O)N1C[C@H](COc2nc(Nc3cnn(C)c3)nc3[nH]cc(Cl)c23)[C@@H](OC)C1 [II-185] | 250 to 5000 | 250 to 5000 | < 250 | < 250 | < 250 |  |  |
| C=C(COc1cc(-c2ccccn2)ccc1CNc1nc(N[C@H](CC)CO)nc2c1ncn2C(C)C)C(=O)N1CCN(c2nc(OC[C@@H]3CCCN3C)nc3c2CCN(c2cccc4cccc(Cl)c24)C3)C[C@@H]1CC#N [II-186] |  |  |  |  | 250 to 5000 | 250 to 5000 | < 250 |
| C=C(CN1CCN(c2nc(NCc3nc4cc(C)ccc4[nH]3)n3ncc(Br)c3n2)CC1)C(=O)Nc1cc(Nc2nccc(-c3cn(C)c4ccccc34)n2)c(OC)cc1N(C)CCN(C)C [II-188] | < 250 | < 250 |  | > 10000 | < 250 |  |  |
| C=C(CN1CCN(c2nc(NCc3nc4cc(C)ccc4[nH]3)n3ncc(Br)c3n2)CC1)C(=O)N1CCN(c2nc(OC[C@@H]3CCCN3C)nc3c2CCN(c2cccc4cccc(Cl)c24)C3)C[C@@H]1CC#N [II-190] |  |  |  |  | < 250 | < 250 | < 250 |
| C=C(CN1CCN(c2nc(NCc3nc4cc(C)ccc4[nH]3)n3ncc(Br)c3n2)CC1)C(=O)Nc1cccc(-c2cccc3cnc(Nc4ccc(N5CCN(CCO)CC5)c(F)c4F)nc23)c1 [II-191] | 250 to 5000 | 5000 to 10000 |  |  |  |  |  |
